Experimental data: patent US7951598B2, “Differential hemolysis of a whole blood sample” (Roche Diagnostics Operations, Inc., priority 2006, dated 2011)

Key:
[1] = system: red blood cells in EDTA-stabilized whole blood; assay: Visual evaluation of hemolysis (time until hemolysate is clear); format: cell-based
Description: Whether the conditions for differential hemolysis are appropriate can be easily and preferably determined by using the following standardized procedure. A whole blood sample with a hematocrit of 40 is diluted 1:10 and mixed 1:1 with the candidate hemolysis reagent. The efficacy of a reagent for bringing about differential hemolysis is seen visually. Upon lysis of the erythrocytes the mixture becomes clear. If precipitation of sample constituents occurs the sample becomes turbid or viscous or both.
(§1) Solution A: Fresh EDTA-stabilized whole blood is diluted with 0.15 molar sodium chloride solution in the ratio 1:10 (50 μL EDTA-blood plus 450 μL sodium chloride solution).
In the case of the addition of a second compound, e.g. potassium iodide (1-Butyl-3-methyl pyridiniumchloride/KJ) the stated salt is added in an approximately equimolar amount.
Hemolysate is prepared by mixing solution A and B in equal volumes, e.g. 500 μL solution A plus 500 μL solution B.
After mixing the hemolysate is inspected visually for turbidometry and clearness immediately after mixing, after 1 minute, 2, 5, 6, 7, 20 and 40 minutes. The time until a clear solution is observed is recorded.

[2] = system: erythrocytes in whole blood; assay: Microscopic evaluation of hemolysis, May-Grünwald staining; format: cell-based
Description: as §1
(§2) Solution B: A solution of the hemolysis reagent in 0.15 molar sodium chloride is prepared where the concentration of the hemolysis reagent is twice as high as the desired final concentration in the hemolysate, e.g. to get a final concentration of 25% of 1-Butyl-4-methylpyridinium tetrafluoroborate a solution of 50% ([…] salt plus 50 mL 0.15 molar sodium chloride in water) is prepared. In the case of the addition of a second anion, e.g. iodide (1-Butyl-3-methylpyridiniumchloride/KJ) the stated salt is added in an equimolar amount.
Hemolysate is prepared by mixing solution A and B in equal volumes, e.g. 20 μL solution A plus 20 μL solution B.
After mixing of the hemolysate a droplet is smeared on a microscope slide, air dried at room temperature and stained with May-Grünwald staining reagent (Merck Cat. No. 1.01424 May-Grünwald's Eosin Methylene Blue Solution).
Microscopy is performed by oil immersion light microscopy (magnification ×630).

[3] = system: erythrocytes in whole blood; assay: Microscopic evaluation of hemolysis, Trypane blue staining; format: cell-based; settings: reagent 25%, 1 in 10 diluted whole blood
Description: The integrity of red blood cells can for example be easily assessed by appropriate life stains. In a preferred embodiment according to the present invention trypane blue is used in order to assess the integrity of a red blood cell, membrane. […] The membrane integrity of a red blood cell is easily assessed under the microscope after staining a sample with trypane blue. The percentage of disrupted red blood cells is calculated by counting intact red blood cells before and after the treatment, by then dividing the first number by the latter number and by then multiplying this value by 100. Red blood cells that are solubilized are referred to as lyzed red blood cells or as lyzed erythrocytes.
as §1
as §2, with “In the case of the addition of a second anion, e.g. iodide (1-Butyl-3-methylpyridiniumchloride/KJ) the stated salt is added in an equimolar amount.” left out

[4] = in vivo; cited from earlier work
[5] = in vitro; cited from earlier work
[6] = final concentration 25% (weight/volume), whole blood final dilution 1:20
[7] = final concentration 12.5% (weight/volume)

Compound: CCCC[n+]1cccc(C)c1.[Cl-] [1-Butyl-3-methyl pyridiniumchloride]
- clear after (min.) [1, 6]: turbid

Compound: CCCCn1cc[n+](C)c1.F[B-](F)(F)F [1-Butyl-3-methyl-imidazolium tetrafluoroborate]
- clear after [1, 6]: 20 min

Compound: CCCCCCCCOS(=O)(=O)[O-].CCCCn1cc[n+](C)c1 [1-Butyl-3-methyl-imidazoliumoctylsulfate]
- clear after (min.) [1, 6]: immediately

Compound: CCCC[n+]1ccc(C)cc1.F[B-](F)(F)F [1-Butyl-4-methylpyridinium tetrafluoroborate]
- clear after (min.) ([1]; final concentration 6% (weight/volume)): turbid
- clear after [1, 7]: 40 min
- clear after [1, 6]: 20 min
- light microscopy of hemolyzed whole blood, May-Grünwald staining ([2]; reagent 25%, 1 in 10 diluted whole blood (FIG. 2)): No erythrocytes or membranes are left, nuclei are still intact
- light microscopy of hemolyzed whole blood, Trypane blue staining ([3]; 2.5 min incubation time (FIG. 4a)): Only few residual erythrocytes are left
- light microscopy of hemolyzed whole blood, Trypane blue staining ([3]; 15 min incubation time (FIG. 4b)): No erythrocytes or membranes are left

Compound: CCCCCC[n+]1ccccc1.[Cl-] [1-Hexylpyridiniumchloride]
- clear after (min.) [1, 7]: turbid
- clear after [1, 6]: 7 min

Compound: CCCCCCCC[N+]1(C)CCCC1.[Cl-] [1-Methyl-1-octyl pyrrolidiniumchloride]
- clear after (min.) ([1]; final concentration 2.5% (weight/volume)): turbid
- clear after (min.) [1, 6]: immediately

Compound: CCCCCCCCOC[n+]1cccc(C(N)=O)c1.[Cl-] [3-Carbamoyl-1-octyloxymethyl pyridiniumchloride]
- clear after (min.) ([1]; final concentration 1.5% (weight/volume)): immediately
- clear after (min.) ([1]; final concentration 6.25% (weight/volume)): immediately
- clear after (min.) [1, 7]: immediately

Compound: COc1c(C)c2c(c(O)c1C/C=C(\C)CCC(=O)OCCN1CCOCC1)C(=O)OC2 [MMF, mycophenolate mofetil]
- therapeutic trough concentration [4]: 1000 to 3500 µg/L

Compound: CCCCCCCC[n+]1ccccc1.[Cl-] [N-Octylpyridiniumchloride]
- clear after [1, 6]: 2 min

Compound: CO[C@H]1C[C@@H]2CC[C@@H](C)[C@@](O)(O2)C(=O)C(=O)N2CCCC[C@H]2C(=O)O[C@H]([C@H](C)C[C@@H]2CC[C@@H](O)[C@H](OC)C2)CC(=O)[C@H](C)/C=C(\C)[C@@H](O)[C@@H](OC)C(=O)[C@H](C)C[C@H](C)/C=C/C=C/C=C/1C [Sirolimus, sirolimus]
- therapeutic trough concentration [4]: 5 to 15 µg/L

Compound: C=CC[C@@H]1/C=C(\C)C[C@H](C)C[C@H](OC)[C@H]2O[C@@](O)(C(=O)C(=O)N3CCCC[C@H]3C(=O)O[C@H](/C(C)=C/[C@@H]3CC[C@@H](O)[C@H](OC)C3)[C@H](C)[C@@H](O)CC1=O)[C@H](C)C[C@@H]2OC [Tacrolimus, tacrolimus]
- potency relative to cyclosporin [5]: up to 100 times
- therapeutic trough concentration [4]: 5 to 20 µg/L

Compound: O [water, reference compound]
- light microscopy of hemolyzed whole blood, May-Grünwald staining ([2]; hemolyzed with water, 1 in 10 diluted whole blood (FIG. 1)): Erythrocyte membranes and nuclei are visible
